In data set [1] the test system is Pseudomonas aeruginosa efflux− (MB9799), IMP-1. It is filed as cell-based. The note with it: efflux− MB9799; imipenem at 2 μg/mL; in the presence of a class A, C, D serine β-lactamase inhibitor closely related to relebactam. The method, boiled down: (§1)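 P. aeruginosa PAO1-derived IMP-1 strains, efflux+ MB9798 and efflux− MB9799, tested by standard microbroth MIC with imipenem and/or ceftazidime fixed, usually at CLSI breakpoint, plus fixed class A/C β-lactamase inhibitor against AmpC. Inhibitor titrated; concentration restoring susceptibility recorded; MB9798/MB9799 fold difference indicates efflux.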

The next data set deals with IMP-1 (Serratia marcescens, UniProt P52699). As to the kind of experiment: biochemical. Conditions: fluorescence assay, CCF2-FA substrate, 2 pM enzyme, 2 hours at 25° C.; read-out: IMP-1 IC50. It is filed as biochemical. In short, it runs like this: (§2)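 Fluorescence assay, CCF2-FA substrate (cephalosporin core linking 7-hydroxycoumarin to fluorescein); inhibitor + MBL + substrate, 2 h, 25° C. IC50 by 4-parameter fit, semi-log plot.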
Sequence of IMP-1 (P52699 whole entry, looked up, species assumed): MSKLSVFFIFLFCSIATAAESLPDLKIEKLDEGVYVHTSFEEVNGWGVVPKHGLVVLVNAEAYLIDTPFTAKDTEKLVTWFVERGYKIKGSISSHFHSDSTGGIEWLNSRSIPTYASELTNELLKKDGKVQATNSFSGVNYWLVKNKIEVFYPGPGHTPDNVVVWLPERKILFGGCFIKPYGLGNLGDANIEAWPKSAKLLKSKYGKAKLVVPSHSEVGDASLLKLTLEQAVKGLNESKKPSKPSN

Another data set deals with NDM-1 (Klebsiella pneumoniae, UniProt C7C422). Put plainly: biochemical. It is filed as biochemical. The note with it: fluorescence assay, CCF2-FA substrate, 1 pM enzyme, 2 hours at 25° C.; read-out: NDM-1 IC50. The method, boiled down: as §2
Sequence of NDM-1 (C7C422 whole entry, looked up, species assumed): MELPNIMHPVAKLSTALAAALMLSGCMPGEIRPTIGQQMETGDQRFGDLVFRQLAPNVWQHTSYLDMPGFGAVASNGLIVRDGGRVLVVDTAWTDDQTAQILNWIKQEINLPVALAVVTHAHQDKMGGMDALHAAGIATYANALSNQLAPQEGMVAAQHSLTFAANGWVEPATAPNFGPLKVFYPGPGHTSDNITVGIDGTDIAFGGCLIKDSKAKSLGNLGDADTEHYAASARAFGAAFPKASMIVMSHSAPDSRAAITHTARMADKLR
For data set [2], the system named is Pseudomonas aeruginosa MB9798 vs MB9799. Conditions: fold difference between efflux+ (MB9798) and efflux− (MB9799) strains; imipenem at 2 μg/mL. The method, boiled down:
as §1

The test system of data set [3] is Pseudomonas aeruginosa efflux+ (MB9798), IMP-1. It is filed as cell-based. Details: Concentration of metallo-β-lactamase inhibitor which restores susceptibility of efflux + (MB9798) strain to imipenem: unit not given here. Conditions: efflux+ MB9798; imipenem at 2 μg/mL; in the presence of a class A, C, D serine β-lactamase inhibitor closely related to relebactam. The method, boiled down:
as §1

For data set [4], the system named is Klebsiella pneumoniae expressing VIM-1 (IHMA599644). It is filed as cell-based. Conditions: VIM-1 strain IHMA599644, with imipenem 1 μg/ml, 95% inhibition of growth. The method, boiled down:
(§3)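 Clinical isolates (E. coli NDM-1, S. marcescens IMP-1, K. pneumoniae VIM-1) were diluted 1:100 from saline suspension into 1.1×CAMHB and exposed to test compound with imipenem at 1 μg/ml. Plates were incubated at 35° C for 22 hours to 24 hours, and growth was read by absorbance.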

The test system of data set [5] is Escherichia coli expressing NDM-1 (CLB30005, CLB30016). It is filed as cell-based. The note with it: NDM-1 strain, with imipenem 1 μg/ml, 95% inhibition of growth. In short, it runs like this:
as §3

Data set [6] has as its system Serratia marcescens expressing IMP-1 (CL5741). It is filed as cell-based. The note with it: IMP-1 strain CL5741, with imipenem 1 μg/ml, 95% inhibition of growth. In short, it runs like this:
as §3

The target in another data set is VIM-1 (Pseudomonas aeruginosa (strain ATCC 15692 / DSM 22644 / CIP 104116 / JCM 14847 / LMG 12228 / 1C / PRS 101 / PAO1), UniProt A0A0F7KYQ8). Put plainly: biochemical. Conditions: CCF2-FA substrate, 30 pM enzyme, 2 hours at 25° C. The method, boiled down: as §2
The mark [7] stands for this setting: fluorescence assay, read-out: VIM-1 IC50.

Structures can show the parent of a compound that is named as a salt. Where two headings read alike, the source gives them in different places.

We go through ten compounds from US10221163B2 (priority 2015, dated 2019).

Turning to `NC(=O)c1csc(Nc2cccc(-c3ccc(S(=O)(=O)N[C@@H]4CCNC4)c(S(N)(=O)=O)c3-c3nn[nH]n3)c2)n1` [Example 471, (R)-2-((4′-(N-(pyrrolidin-3-yl)sulfamoyl)-3′-sulfamoyl-2′-(2H-tetrazol-5-yl)-[1,1′-biphenyl]-3-yl)amino)thiazole-4-carboxamide], the “Concentration of metallo-β-lactamase inhibitor which restores susceptibility of efflux − (MB9799) strain to imipenem” value in data set [1] is recorded as 0.7813. In addition, the concentration for half-maximal inhibition (IC50) was determined as 0.111 nM at IMP-1, 0.0303 nM at NDM-1 and 0.0734 nM on VIM-1 (setting [7]). Besides, the Efflux ratio in data set [2] is listed as 4.00. Also, the “Concentration of metallo-β-lactamase inhibitor which restores susceptibility of efflux + (MB9798) strain to imipenem” value in [3] turned out to be 3.125. The “Klebsiella pneumoniae MITC95” value in data set [4] came out at 3.125 µM. Moreover, in [5], the “Escherichia coli MITC95” value was 1.563 µM. Further, in data set [6], the “Serratia marcescens MITC95” value came out at 1.563 µM.
As to `NS(=O)(=O)c1c(S(=O)(=O)N[C@H]2CCNC2)ccc(-c2cccc(Nc3ncc[nH]3)c2)c1-c1nn[nH]n1` [Example 472, dihydrochloride], the “Concentration of metallo-β-lactamase inhibitor which restores susceptibility of efflux − (MB9799) strain to imipenem” value in data set [1] came to 0.3906. In addition, the IC50 at IMP-1 is 0.847 nM; on NDM-1, 0.114 nM; against VIM-1 (VIM-1 IC50, fluorescence assay), 0.189 nM. Also, in data set [2], the Efflux ratio stood at 4.00. Also, the “Concentration of metallo-β-lactamase inhibitor which restores susceptibility of efflux + (MB9798) strain to imipenem” value in [3] stood at 1.563. Besides, in data set [4], the “Klebsiella pneumoniae MITC95” value was determined as 0.7813 µM. In data set [5], the “Escherichia coli MITC95” value worked out at 0.7813 µM. Besides, the “Serratia marcescens MITC95” value in data set [6] was determined as 0.7813 µM.
Turning to `NCc1nc2cc(-c3ccc(S(=O)(=O)NC[C@@H](O)CN)c(S(N)(=O)=O)c3-c3nn[nH]n3)ccc2s1` [Example 473, (S)-N1-(3-amino-2-hydroxypropyl)-4-(2-(aminomethyl)benzo[d]thiazol-5-yl)-3-(2H-tetrazol-5-yl)benzene-1,2-disulfonamide], in data set [1], the “Concentration of metallo-β-lactamase inhibitor which restores susceptibility of efflux − (MB9799) strain to imipenem” value is 0.7813. In addition, the values for the IC50 at IMP-1, at NDM-1 and on VIM-1 (setting [7]) were 0.329 nM, 0.136 nM and 0.109 nM, respectively. For the same compound, the Efflux ratio in data set [2] is 1.00. The “Concentration of metallo-β-lactamase inhibitor which restores susceptibility of efflux + (MB9798) strain to imipenem” value in [3] worked out at 0.7813. Moreover, the “Klebsiella pneumoniae MITC95” value in [4] was found to be 1.563 µM. Besides, the “Escherichia coli MITC95” value in data set [5] is 0.7813 µM. Besides, the “Serratia marcescens MITC95” value in data set [6] was found to be 1.563 µM.
On to `NCc1nc2cc(-c3ccc(S(=O)(=O)N[C@@H](CN)CO)c(S(N)(=O)=O)c3-c3nn[nH]n3)ccc2[nH]1` [Example 474, (S)-N1-(1-amino-3-hydroxypropan-2-yl)-4-(2-(aminomethyl)-1H-benzo[d]imidazol-5-yl)-3-(2H-tetrazol-5-yl)benzene-1,2-disulfonamide], for which the “Concentration of metallo-β-lactamase inhibitor which restores susceptibility of efflux − (MB9799) strain to imipenem” value in data set [1] is recorded as 0.7813. In addition, the figures for the IC50 at IMP-1, on NDM-1 and at VIM-1 (setting [7]) were 0.522 nM, 0.104 nM and 0.141 nM, respectively. Further, in [2], the Efflux ratio was found to be 1.00. Besides, the “Concentration of metallo-β-lactamase inhibitor which restores susceptibility of efflux + (MB9798) strain to imipenem” value in [3] worked out at 0.7813. Further, the “Klebsiella pneumoniae MITC95” value in data set [4] turned out to be 1.563 µM. Also, the “Escherichia coli MITC95” value in data set [5] is 0.7813 µM. For the same compound, the “Serratia marcescens MITC95” value in data set [6] worked out at 1.563 µM.
For `NCc1nc2cc(-c3ccc(S(=O)(=O)N[C@@H](CN)CO)c(S(N)(=O)=O)c3-c3nn[nH]n3)ccc2s1` [Example 475, (S)-N1-(1-amino-3-hydroxypropan-2-yl)-4-(2-(aminomethyl)benzo[d]thiazol-5-yl)-3-(2H-tetrazol-5-yl)benzene-1,2-disulfonamide], in data set [1], the “Concentration of metallo-β-lactamase inhibitor which restores susceptibility of efflux − (MB9799) strain to imipenem” value was determined as 0.7813. In addition, the results for the IC50 at IMP-1, at NDM-1 and at VIM-1 (setting [7]) were 0.13 nM, 0.0604 nM and 0.0869 nM, respectively. In addition, in [2], the Efflux ratio is 1.00. Also, in [3], the “Concentration of metallo-β-lactamase inhibitor which restores susceptibility of efflux + (MB9798) strain to imipenem” value is recorded as 0.7813. Also, the “Klebsiella pneumoniae MITC95” value in [4] stood at 1.563 µM. Further, in data set [5], the “Escherichia coli MITC95” value turned out to be 0.7813 µM. In data set [6], the “Serratia marcescens MITC95” value was 1.563 µM.
With `NCCNS(=O)(=O)c1ccc(-c2ccc3sc(CN)nc3c2)c(-c2nn[nH]n2)c1S(N)(=O)=O` [Example 476, N1-(2-aminoethyl)-4-(2-(aminomethyl)benzo[d]thiazol-5-yl)-3-(2H-tetrazol-5-yl)benzene-1,2-disulfonamide], the “Concentration of metallo-β-lactamase inhibitor which restores susceptibility of efflux − (MB9799) strain to imipenem” value in data set [1] was 0.7813. The IC50 stood at 0.281 nM at IMP-1, 0.27 nM on NDM-1 and 0.121 nM on VIM-1 (setting [7]). Moreover, the Efflux ratio in data set [2] came out at 1.00. Moreover, the “Concentration of metallo-β-lactamase inhibitor which restores susceptibility of efflux + (MB9798) strain to imipenem” value in data set [3] stood at 0.7813. Besides, the “Klebsiella pneumoniae MITC95” value in data set [4] was found to be 1.563 µM. Besides, the “Escherichia coli MITC95” value in data set [5] is 1.563 µM. In addition, in data set [6], the “Serratia marcescens MITC95” value turned out to be 0.7813 µM.
As for `Cc1cc(-c2ccc(S(=O)(=O)NC[C@H](O)CN)c(S(N)(=O)=O)c2-c2nn[nH]n2)cnc1N` [Example 477, (R)—N1-(3-amino-2-hydroxypropyl)-4-(6-amino-5-methylpyridin-3-yl)-3-(2H-tetrazol-5-yl)benzene-1,2-disulfonamide], in [1], the “Concentration of metallo-β-lactamase inhibitor which restores susceptibility of efflux − (MB9799) strain to imipenem” value was 0.7813. Further, the figures for the IC50 on IMP-1, on NDM-1 and on VIM-1 (setting [7]) were 0.842 nM, 0.28 nM and 0.132 nM, respectively. Moreover, the Efflux ratio in [2] is listed as 2.00. Further, the “Concentration of metallo-β-lactamase inhibitor which restores susceptibility of efflux + (MB9798) strain to imipenem” value in data set [3] came out at 1.563. Further, the “Klebsiella pneumoniae MITC95” value in data set [4] came to 1.563 µM. Moreover, the “Escherichia coli MITC95” value in data set [5] was determined as 0.1953 µM. The “Serratia marcescens MITC95” value in data set [6] worked out at 0.7813 µM.
In the case of `NC[C@@H](O)CNS(=O)(=O)c1ccc(-c2cnc(N)c(F)c2)c(-c2nn[nH]n2)c1S(N)(=O)=O` [Example 478, (R)-N1-(3-amino-2-hydroxypropyl)-4-(6-amino-5-fluoropyridin-3-yl)-3-(2H-tetrazol-5-yl)benzene-1,2-disulfonamide], in data set [1], the “Concentration of metallo-β-lactamase inhibitor which restores susceptibility of efflux − (MB9799) strain to imipenem” value is given as 0.7813. In addition, the IC50 on IMP-1 is 0.677 nM; at NDM-1, 0.159 nM; against VIM-1 (VIM-1 IC50, fluorescence assay), 0.0914 nM. The Efflux ratio in data set [2] worked out at 1.00. For the same compound, the “Concentration of metallo-β-lactamase inhibitor which restores susceptibility of efflux + (MB9798) strain to imipenem” value in data set [3] turned out to be 0.7813. In addition, in data set [4], the “Klebsiella pneumoniae MITC95” value came out at 3.125 µM. The “Escherichia coli MITC95” value in [5] amounted to 1.563 µM. The “Serratia marcescens MITC95” value in data set [6] was 1.563 µM.
`C[C@H](N)CNS(=O)(=O)c1ccc(-c2ccc(N)nc2)c(-c2nn[nH]n2)c1S(N)(=O)=O` [Example 479, (S)—N1-(2-aminopropyl)-4-(6-aminopyridin-3-yl)-3-(2H-tetrazol-5-yl) benzene-1,2-disulfonamide]: the “Concentration of metallo-β-lactamase inhibitor which restores susceptibility of efflux − (MB9799) strain to imipenem” value in data set [1] amounted to 0.7813. Also, the figures for the IC50 at IMP-1, at NDM-1 and on VIM-1 (setting [7]) were 0.664 nM, 0.224 nM and 0.299 nM, respectively. Also, in data set [2], the Efflux ratio is given as 1.00. Also, the “Concentration of metallo-β-lactamase inhibitor which restores susceptibility of efflux + (MB9798) strain to imipenem” value in data set [3] came to 0.7813. Further, the “Klebsiella pneumoniae MITC95” value in [4] was 1.563 µM. In addition, the “Escherichia coli MITC95” value in [5] was found to be 0.1953 µM. The “Serratia marcescens MITC95” value in data set [6] is 0.7813 µM.
As for `C[C@@H](N)CNS(=O)(=O)c1ccc(-c2ccc(N)nc2)c(-c2nn[nH]n2)c1S(N)(=O)=O` [Example 480, (R)—N1-(2-aminopropyl)-4-(6-aminopyridin-3-yl)-3-(2H-tetrazol-5-yl) benzene-1,2-disulfonamide], the “Concentration of metallo-β-lactamase inhibitor which restores susceptibility of efflux − (MB9799) strain to imipenem” value in data set [1] is on record as 0.7813. The IC50 at IMP-1 came out at 0.32 nM; on NDM-1 it was 0.227 nM; on VIM-1 (setting [7]), 0.249 nM. In addition, in [2], the Efflux ratio is 1.00. The “Concentration of metallo-β-lactamase inhibitor which restores susceptibility of efflux + (MB9798) strain to imipenem” value in data set [3] came to 0.7813. In addition, the “Klebsiella pneumoniae MITC95” value in data set [4] stood at 1.563 µM. In [5], the “Escherichia coli MITC95” value worked out at 0.1953 µM. In addition, in data set [6], the “Serratia marcescens MITC95” value came out at 0.3906 µM.
